Data taken from patent publication US11213030B2, “4-(3,4-dihydronaphth-1-yl or 2H-chromen-4-yl)-5-hydroxy-2H-pyradizin-3-ones as herbicides” (FMC Corporation, priority 2017, dated 2022).

Assays:
Assay type in all cases: in vivo
[1] = system: ragweed (common ragweed, Ambrosia elatior); assay: Test A postemergence, ragweed; details: 0 to 100 scale
Description: (§1) Seeds of plant species selected from barnyardgrass (Echinochloa crus-galli), kochia (Kochia scoparia), ragweed (common ragweed, Ambrosia elatior), ryegrass, It. (Italian ryegrass, Lolium multiflorum), foxtail, green (green foxtail, Setaria viridis), and pigweed (Amaranthus retroflexus) were planted into a blend of loam soil and sand and treated preemergence with a directed soil spray using test chemicals formulated in a non-phytotoxic solvent mixture which included a surfactant. At the same time, plants selected from these weed species and also wheat (Triticum aestivum), corn (Zea mays), blackgrass (Alopecurus myosuroides), and galium (catchweed bedstraw, Galium aparine) were planted in pots containing the same blend of loam soil and sand and treated with postemergence applications of test chemicals formulated in the same manner. Plants ranged in height from 2 to 10 cm and were in the one- to two-leaf stage for the postemergence treatment. Treated plants and untreated controls were maintained in a greenhouse for approximately 10 d, after which time all treated plants were compared to untreated controls and visually evaluated for injury. Plant response ratings, summarized in Table A, are based on a 0 to 100 scale where 0 is no effect and 100 is complete control. A dash (-) response means no test result.

corn (Zea mays) = assay: Test A postemergence, corn; details: 0 to 100 scale
Description: as §1

[2] = system: barnyardgrass (Echinochloa crus-galli); assay: Test A postemergence, barnyardgrass; details: 0 to 100 scale
Description: as §1

[3] = system: barnyardgrass (Echinochloa crus-galli); assay: Test A preemergence, barnyardgrass; details: 0 to 100 scale
Description: as §1

[4] = system: foxtail, green (green foxtail, Setaria viridis); assay: Test A postemergence, green foxtail; details: 0 to 100 scale
Description: as §1

[5] = system: galium (catchweed bedstraw, Galium aparine); assay: Test A postemergence, galium; details: 0 to 100 scale
Description: as §1

[6] = system: ryegrass, It. (Italian ryegrass, Lolium multiflorum); assay: Test A preemergence, Italian ryegrass; details: 0 to 100 scale
Description: as §1

kochia (Kochia scoparia) [7] = assay: Test A preemergence, kochia; details: 0 to 100 scale
Description: as §1

[8] = system: wheat (Triticum aestivum); assay: Test A postemergence, wheat; details: 0 to 100 scale
Description: as §1

[9] = system: ragweed (common ragweed, Ambrosia elatior); assay: Test A preemergence, ragweed; details: 0 to 100 scale
Description: as §1

[10] = system: blackgrass (Alopecurus myosuroides); assay: Test A postemergence, blackgrass; details: 0 to 100 scale
Description: as §1

kochia (Kochia scoparia) [11] = assay: Test A postemergence, kochia; details: 0 to 100 scale
Description: as §1

[12] = system: ryegrass, It. (Italian ryegrass, Lolium multiflorum); assay: Test A postemergence, Italian ryegrass; details: 0 to 100 scale
Description: as §1

[13] = system: foxtail, green (green foxtail, Setaria viridis); assay: Test A preemergence, green foxtail; details: 0 to 100 scale
Description: as §1

[14] = system: pigweed (Amaranthus retroflexus); assay: Test A postemergence, pigweed; details: 0 to 100 scale
Description: as §1

[15] = system: pigweed (Amaranthus retroflexus); assay: Test A preemergence, pigweed; details: 0 to 100 scale
Description: as §1

[16] = system: sedge, umbrella (small-flower umbrella sedge, Cyperus difformis); assay: Test B flooded paddy test, umbrella sedge; details: Flood, 250 g ai/ha applied to paddy water, 2-leaf stage, 13 to 15 d; scale of 0 to 100 where 0 is no effect and 100 is complete control
Method: (§2) Plant species in the flooded paddy test selected from rice (Oryza sativa), sedge, umbrella (small-flower umbrella sedge, Cyperus difformis), ducksalad (Heteranthera limosa), and barnyardgrass (Echinochloa crus-galli) were grown to the 2-leaf stage for testing. At the time of treatment, test pots were flooded to 3 cm above the soil surface, treated by application of test compounds directly to the paddy water, and then maintained at that water depth for the duration of the test. Treated plants and controls were maintained in a greenhouse for 13 to 15 d, after which time all species were compared to controls and visually evaluated. Plant response ratings, summarized in Table B, are based on a scale of 0 to 100 where 0 is no effect and 100 is complete control. A dash (-) response means no test result.

[17] = system: barnyardgrass (Echinochloa crus-galli); assay: Test B flooded paddy test, barnyardgrass; details: Flood, 250 g ai/ha applied to paddy water, 2-leaf stage, 13 to 15 d; scale of 0 to 100 where 0 is no effect and 100 is complete control
Method: as §2

[18] = system: ducksalad (Heteranthera limosa); assay: Test B flooded paddy test, ducksalad; details: Flood, 250 g ai/ha applied to paddy water, 2-leaf stage, 13 to 15 d; scale of 0 to 100 where 0 is no effect and 100 is complete control
Method: as §2

rice (Oryza sativa) = assay: Test B flooded paddy test, rice; details: Flood, 250 g ai/ha applied to paddy water, 2-leaf stage, 13 to 15 d; scale of 0 to 100 where 0 is no effect and 100 is complete control
Method: as §2

| SMILES | Plant response rating, Ragweed ([1]; 125 g ai/ha) | Plant response rating, Corn (corn (Zea mays); 125 g ai/ha) | Plant response rating, Barnyardgrass ([2]; 125 g ai/ha) | Plant response rating, Barnyardgrass ([3]; 125 g ai/ha) | Plant response rating, Foxtail, Green ([4]; 125 g ai/ha) | Plant response rating, Galium ([5]; 125 g ai/ha) | Plant response rating, Sedge, Umbrella [16] | Plant response rating, Ryegrass, It. ([6]; 125 g ai/ha) | Plant response rating, Barnyardgrass [17] | Plant response rating, Ducksalad [18] | Plant response rating, Kochia (kochia (Kochia scoparia) [7]; 125 g ai/ha) | Plant response rating, Wheat ([8]; 125 g ai/ha) | Plant response rating, Ragweed ([9]; 125 g ai/ha) | Plant response rating, Blackgrass ([10]; 125 g ai/ha) | Plant response rating, Kochia (kochia (Kochia scoparia) [11]; 125 g ai/ha) | Plant response rating, Ryegrass, It. ([12]; 125 g ai/ha) | Plant response rating, Foxtail, Green ([13]; 125 g ai/ha) | Plant response rating, Pigweed ([14]; 125 g ai/ha) | Plant response rating, Rice (rice (Oryza sativa)) | Plant response rating, Pigweed ([15]; 125 g ai/ha) | other results |
| --- | --- | --- | --- | --- | --- | --- | --- | --- | --- | --- | --- | --- | --- | --- | --- | --- | --- | --- | --- | --- | --- |
| COc1c(C)nn(C)c(=O)c1C1=C(C)CCc2ccccc21 [Compound 1, 4-(3,4-dihydro-2-methyl-1-naphthalenyl)-5-methoxy-2,6-dimethyl-3(2H)-pyridazinone] |  |  |  |  |  |  |  |  |  |  |  |  |  |  |  |  |  |  |  |  | Plant response rating, Ragweed ([1]; 1000 g ai/ha): 90; Plant response rating, Corn (corn (Zea mays); 1000 g ai/ha): 10; Plant response rating, Barnyardgrass ([2]; 1000 g ai/ha, 0 no effect, 100 complete control): 60; Plant response rating, Barnyardgrass ([3]; 1000 g ai/ha): 80; Plant response rating, Foxtail, Green ([4]; 1000 g ai/ha): 60; Plant response rating, Galium ([5]; 1000 g ai/ha): 100; Plant response rating, Ryegrass, It. ([6]; 1000 g ai/ha): 100; Plant response rating, Kochia (kochia (Kochia scoparia) [7]; 1000 g ai/ha): 70; Plant response rating, Wheat ([8]; 1000 g ai/ha): 0; Plant response rating, Ragweed ([9]; 1000 g ai/ha): 100; Plant response rating, Blackgrass ([10]; 1000 g ai/ha): 70; Plant response rating, Kochia (kochia (Kochia scoparia) [11]; 1000 g ai/ha): 20; Plant response rating, Ryegrass, Italian ([12]; 1000 g ai/ha): 90; Plant response rating, Foxtail, Green ([13]; 1000 g ai/ha): 70; Plant response rating, Pigweed ([14]; 1000 g ai/ha): 80; Plant response rating, Pigweed ([15]; 1000 g ai/ha): 60 |
| CC1=C(c2c(O)c(C)nn(C)c2=O)c2ccccc2CC1 [Compound 2, 4-(3,4-dihydro-2-methyl-1-naphthalenyl)-5-hydroxy-2,6-dimethyl-3(2H)-pyridazinone] | 80 | 10 | 0 | 0 | 10 | 90 | 0 | 40 | 0 | 0 | 0 | 0 | 40 | 0 | 80 | 60 | 0 | 80 | 0 | 0 | Plant response rating, Ragweed ([1]; 500 g ai/ha): 90; Plant response rating, Corn (corn (Zea mays); 500 g ai/ha): 10; Plant response rating, Barnyardgrass ([2]; 500 g ai/ha): 20; Plant response rating, Barnyardgrass ([3]; 500 g ai/ha): 0; Plant response rating, Foxtail, Green ([4]; 500 g ai/ha): 70; Plant response rating, Galium ([5]; 500 g ai/ha): 100; Plant response rating, Ryegrass, It. ([6]; 500 g ai/ha): 50; Plant response rating, Kochia (kochia (Kochia scoparia) [7]; 500 g ai/ha): 80; Plant response rating, Wheat ([8]; 500 g ai/ha): 0; Plant response rating, Ragweed ([9]; 500 g ai/ha): 90; Plant response rating, Blackgrass ([10]; 500 g ai/ha): 20; Plant response rating, Kochia (kochia (Kochia scoparia) [11]; 500 g ai/ha): 90; Plant response rating, Ryegrass, Italian ([12]; 500 g ai/ha): 100; Plant response rating, Foxtail, Green ([13]; 500 g ai/ha): 0; Plant response rating, Pigweed ([14]; 500 g ai/ha): 90; Plant response rating, Pigweed ([15]; 500 g ai/ha): 80 |
| CC1=C(c2c(O)c(C)nn(C)c2=O)c2ccccc2OC1 [Compound 3, 5-hydroxy-2,6-dimethyl-4-(3-methyl-2H-1-benzopyran-4-yl)-3(2H)-pyridazinone] | 60 | 0 | 0 | 0 | 0 |  | 50 | 0 | 0 | 0 | 10 | 0 | 0 | 0 | 70 | 10 | 0 | 80 | 0 | 10 | Plant response rating, Ragweed ([1]; 500 g ai/ha): 90; Plant response rating, Corn (corn (Zea mays); 500 g ai/ha): 10; Plant response rating, Barnyardgrass ([2]; 500 g ai/ha): 10; Plant response rating, Barnyardgrass ([3]; 500 g ai/ha): 0; Plant response rating, Foxtail, Green ([4]; 500 g ai/ha): 20; Plant response rating, Ryegrass, It. ([6]; 500 g ai/ha): 10; Plant response rating, Kochia (kochia (Kochia scoparia) [7]; 500 g ai/ha): 30; Plant response rating, Wheat ([8]; 500 g ai/ha): 0; Plant response rating, Ragweed ([9]; 500 g ai/ha): 50; Plant response rating, Blackgrass ([10]; 500 g ai/ha): 10; Plant response rating, Kochia (kochia (Kochia scoparia) [11]; 500 g ai/ha): 90; Plant response rating, Ryegrass, Italian ([12]; 500 g ai/ha): 60; Plant response rating, Foxtail, Green ([13]; 500 g ai/ha): 0; Plant response rating, Pigweed ([14]; 500 g ai/ha): 100; Plant response rating, Pigweed ([15]; 500 g ai/ha): 60 |
| CC1=C(c2c(O)c(C)nn(C)c2=O)c2cc(C)ccc2CC1 [Compound 4] | 20 | 0 | 10 | 0 | 20 | 70 | 0 | 0 | 0 | 0 | 0 | 0 | 0 | 0 | 20 | 20 | 0 | 70 | 0 | 0 | Plant response rating, Ragweed ([1]; 31 g ai/ha): 0; Plant response rating, Corn (corn (Zea mays); 31 g ai/ha): 0; Plant response rating, Barnyardgrass ([2]; 31 g ai/ha): 10; Plant response rating, Barnyardgrass ([3]; 31 g ai/ha): 0; Plant response rating, Foxtail, Green ([4]; 31 g ai/ha): 10; Plant response rating, Galium ([5]; 31 g ai/ha): 40; Plant response rating, Ryegrass, It. ([6]; 31 g ai/ha): 0; Plant response rating, Kochia (kochia (Kochia scoparia) [7]; 31 g ai/ha): 0; Plant response rating, Wheat ([8]; 31 g ai/ha): 0; Plant response rating, Ragweed ([9]; 31 g ai/ha): 0; Plant response rating, Blackgrass ([10]; 31 g ai/ha): 0; Plant response rating, Kochia (kochia (Kochia scoparia) [11]; 31 g ai/ha): 0; Plant response rating, Ryegrass, It. ([12]; 31 g ai/ha): 0; Plant response rating, Foxtail, Green ([13]; 31 g ai/ha): 0; Plant response rating, Pigweed ([14]; 31 g ai/ha): 50; Plant response rating, Pigweed ([15]; 31 g ai/ha): 0 |
| CC(=O)Oc1c(C)nn(C)c(=O)c1C1=C(C)CCc2ccccc21 [Compound 5] | 80 | 20 | 30 | 0 | 40 | 90 | 0 | 70 | 0 | 0 | 10 | 0 | 80 | 30 | 80 | 80 | 0 | 100 | 0 | 100 | Plant response rating, Ragweed ([1]; 31 g ai/ha): 30; Plant response rating, Corn (corn (Zea mays); 31 g ai/ha): 20; Plant response rating, Barnyardgrass ([2]; 31 g ai/ha): 20; Plant response rating, Barnyardgrass ([3]; 31 g ai/ha): 20; Plant response rating, Foxtail, Green ([4]; 31 g ai/ha): 20; Plant response rating, Galium ([5]; 31 g ai/ha): 90; Plant response rating, Ryegrass, It. ([6]; 31 g ai/ha): 40; Plant response rating, Kochia (kochia (Kochia scoparia) [7]; 31 g ai/ha): 0; Plant response rating, Wheat ([8]; 31 g ai/ha): 0; Plant response rating, Ragweed ([9]; 31 g ai/ha): 20; Plant response rating, Blackgrass ([10]; 31 g ai/ha): 0; Plant response rating, Kochia (kochia (Kochia scoparia) [11]; 31 g ai/ha): 70; Plant response rating, Ryegrass, It. ([12]; 31 g ai/ha): 70; Plant response rating, Foxtail, Green ([13]; 31 g ai/ha): 0; Plant response rating, Pigweed ([14]; 31 g ai/ha): 70; Plant response rating, Pigweed ([15]; 31 g ai/ha): 20 |
